# Source: ChEMBL document CHEMBL6134800, “Applications of innovative synthetic strategies in anticancer drug discovery: The driving force of new chemical reactions” (Bioorg Med Chem Lett, 2025)
# Columns and labels:
# [1] = biological target: Indoleamine 2,3-dioxygenase 1 (Homo sapiens, UniProt P14902); assay: Inhibition of N-terminal His-tagged human IDO1 extracted from Escherichia coli
# K562/Adr [2] = assay: Reversal of multidrug resistance in human K562/Adr cells assessed as reversal fold by measuring ratio of adriamycin IC50 to adriamycin IC50 in presence of test compound at 10 uM; assay type: functional
# HeLa [3] = assay: Antiproliferative activity against human Hela cells by MTT assay; assay type: functional, cell-based
# HCT-116 [4] = assay: Antiproliferative activity against human HCT-116 cells by MTT assay; assay type: functional, cell-based
# U-87 MG = assay: Antiproliferative activity against human U-87 MG cells assessed as reduction in cell viability by MTT assay; assay type: functional, cell-based, U-87MG ATCC
# CAL-27 = assay: Antiproliferative activity against human CAL-27 cells assessed as reduction in cell viability incubated for 24 hrs by MTT assay; assay type: functional, cell-based; details: CAL-27, 24 h
# HCT-116 [5] = assay: Antiproliferative activity against human HCT-116 cells assessed as inhibition of cell growth at 20 uM incubated for 48 hrs by MTT assay relative to control; assay type: functional
# A549 = assay: Antiproliferative activity against human A549 cells assessed as inhibition of cell growth at 20 uM incubated for 48 hrs by MTT assay relative to control; assay type: functional
# Candida albicans = assay: Antifungal activity against Candida albicans MTCC 3020 assessed as reduction in fungal growth; assay type: functional
# KBv200 = assay: Cytotoxicity against human KBv200 cells assessed as reduction in cell viability incubated for 72 hrs by SRB assay; assay type: functional, cell-based; details: KBv200, 72 h
# K562/Adr [6] = assay: Antiproliferative activity against human K562/Adr cells assessed as reduction in cell growth incubated for 72 hrs by MTT assay; assay type: functional, cell-based
# MDA-MB-231 [7] = assay: Cytotoxicity against human MDA-MB-231 cells assessed as reduction in cell viability incubated for 24 hrs by CCK-8 assay; assay type: functional, cell-based; details: MDA-MB-231, 24 h
# HeLa [8] = assay: Antiproliferative activity against human HeLa cells; assay type: functional, cell-based
# K562 = assay: Antiproliferative activity against human K562 cells assessed as reduction in cell viability incubated for 72 hrs by Celltiter-Glo reagent based assay; assay type: functional; details: K562, 72 h
# Jurkat = assay: Antiproliferative activity against human Jurkat cells assessed as reduction in cell viability incubated for 72 hrs by Celltiter-Glo reagent based assay; assay type: functional
# MCF7 [9] = assay: Antiproliferative activity against human MCF7 cells assessed as reduction in cell viability incubated for 72 hrs by MTT assay; assay type: functional, cell-based; details: MCF7, 72 h
# HeLa [10] = assay: Antiproliferative activity against human HeLa cells assessed as reduction in cell viability by MTT assay; assay type: functional, cell-based
# MDA-MB-231 [11] = assay: Antiproliferative activity against human MDA-MB-231 cells by CCK8 assay; assay type: functional, cell-based
# SMMC-7721 = assay: Antiproliferative activity against human SMMC-7721 cells by CCK8 assay; assay type: functional, cell-based
# QGY-7703 = assay: Antiproliferative activity against human QGY-7703 cells by CCK8 assay; assay type: functional, cell-based
# L02 = assay: Antiproliferative activity against human L02 cells by CCK8 assay; assay type: functional, cell-based
# HepG2 [12] = assay: Cytotoxicity against human HepG2 cells assessed as reduction in cell viability incubated for 24 hrs by CCK-8 assay; assay type: functional, cell-based; details: HepG2, 24 h
# MDA-MB-231 [13] = assay: Antiproliferative activity against human MDA-MB-231 cells assessed as reduction in cell viability incubated for 72 hrs by Celltiter-Glo reagent based assay; assay type: functional; details: MDA-MB-231, 72 h
# HepG2 [14] = assay: Antiproliferative activity against human HepG2 cells assessed as reduction in cell viability incubated for 72 hrs by Celltiter-Glo reagent based assay; assay type: functional; details: HepG2, 72 h
# MCF7 [15] = assay: Antiproliferative activity against human MCF7 cells assessed as reduction in cell growth; assay type: functional, cell-based
# [16] = test system: Mycobacterium tuberculosis; assay: Antimycobacterial activity against Mycobacterium tuberculosis H37Rv assessed as bacterial growth inhibition by microplate Alamar blue assay; assay type: functional
# [17] = biological target: Lysine-specific demethylase 5C (Homo sapiens, UniProt P41229); assay: Inhibition of KDM5C (unknown origin)
# Sequence of Lysine-specific demethylase 5C (P41229 whole entry): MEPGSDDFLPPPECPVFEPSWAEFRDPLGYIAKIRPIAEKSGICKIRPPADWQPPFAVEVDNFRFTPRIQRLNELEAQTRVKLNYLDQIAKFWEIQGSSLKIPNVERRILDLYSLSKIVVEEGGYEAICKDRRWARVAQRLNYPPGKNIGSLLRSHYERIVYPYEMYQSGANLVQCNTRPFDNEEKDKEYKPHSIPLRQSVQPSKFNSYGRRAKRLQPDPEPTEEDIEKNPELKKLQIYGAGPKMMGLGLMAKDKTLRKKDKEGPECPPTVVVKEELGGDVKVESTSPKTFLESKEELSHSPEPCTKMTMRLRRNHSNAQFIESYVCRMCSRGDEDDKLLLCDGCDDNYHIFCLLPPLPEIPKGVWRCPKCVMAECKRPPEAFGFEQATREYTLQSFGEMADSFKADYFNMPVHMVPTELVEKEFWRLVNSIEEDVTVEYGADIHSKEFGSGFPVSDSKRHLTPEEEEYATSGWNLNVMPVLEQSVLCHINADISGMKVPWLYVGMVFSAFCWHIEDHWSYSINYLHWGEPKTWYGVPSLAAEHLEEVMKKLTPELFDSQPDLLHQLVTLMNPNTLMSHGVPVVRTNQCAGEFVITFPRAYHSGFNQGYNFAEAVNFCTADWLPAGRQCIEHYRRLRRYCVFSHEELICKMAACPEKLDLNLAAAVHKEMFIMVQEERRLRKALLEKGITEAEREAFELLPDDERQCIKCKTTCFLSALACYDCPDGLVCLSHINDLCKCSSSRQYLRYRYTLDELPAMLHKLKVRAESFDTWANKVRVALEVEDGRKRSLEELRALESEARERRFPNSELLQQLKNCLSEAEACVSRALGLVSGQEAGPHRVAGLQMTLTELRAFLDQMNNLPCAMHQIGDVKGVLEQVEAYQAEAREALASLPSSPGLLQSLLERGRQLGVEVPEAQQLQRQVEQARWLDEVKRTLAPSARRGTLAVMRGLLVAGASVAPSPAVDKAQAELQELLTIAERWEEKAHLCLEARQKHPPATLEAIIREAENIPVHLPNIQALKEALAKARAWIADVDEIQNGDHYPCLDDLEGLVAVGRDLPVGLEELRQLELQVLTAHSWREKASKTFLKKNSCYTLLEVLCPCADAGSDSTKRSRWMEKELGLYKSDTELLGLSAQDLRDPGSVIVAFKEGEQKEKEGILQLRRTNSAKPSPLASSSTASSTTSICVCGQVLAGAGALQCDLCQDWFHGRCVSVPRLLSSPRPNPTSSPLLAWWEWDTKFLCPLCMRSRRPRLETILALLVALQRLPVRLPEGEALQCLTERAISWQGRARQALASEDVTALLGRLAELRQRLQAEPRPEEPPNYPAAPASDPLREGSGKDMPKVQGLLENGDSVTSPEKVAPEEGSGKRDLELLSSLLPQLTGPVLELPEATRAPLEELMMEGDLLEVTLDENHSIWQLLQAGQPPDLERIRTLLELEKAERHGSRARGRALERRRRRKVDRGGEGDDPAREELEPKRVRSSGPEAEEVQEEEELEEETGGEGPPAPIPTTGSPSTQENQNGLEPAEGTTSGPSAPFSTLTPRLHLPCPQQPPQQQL
# HCC1806 = assay: Antiproliferative activity against human HCC1806 cells assessed as inhibition of cell growth at 30 uM relative to control; assay type: functional
# HeLa [18] = assay: Anticancer activity against human HeLa cells assessed as reduction in cell growth; assay type: functional, cell-based
# 4T1 = assay: Anticancer activity against mouse 4T1 cells assessed as reduction in cell growth; assay type: functional, cell-based
# Sequence of Indoleamine 2,3-dioxygenase 1 (P14902 whole entry): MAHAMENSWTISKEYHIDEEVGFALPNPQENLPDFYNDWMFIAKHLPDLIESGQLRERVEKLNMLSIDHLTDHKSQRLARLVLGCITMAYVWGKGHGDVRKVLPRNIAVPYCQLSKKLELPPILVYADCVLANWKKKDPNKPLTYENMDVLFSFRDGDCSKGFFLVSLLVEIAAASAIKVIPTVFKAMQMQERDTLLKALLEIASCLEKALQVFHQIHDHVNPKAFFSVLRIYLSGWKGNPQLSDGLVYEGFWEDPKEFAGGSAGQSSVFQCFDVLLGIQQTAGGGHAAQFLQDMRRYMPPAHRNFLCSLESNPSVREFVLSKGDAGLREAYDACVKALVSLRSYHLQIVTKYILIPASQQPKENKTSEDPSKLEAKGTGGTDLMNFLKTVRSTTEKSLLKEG
structure (smiles),measurement,setting,value
O=C1c2ccccc2-n2c1c(-c1ccc(Cl)cc1Br)c(S(=O)(=O)c1ccccc1)c2-c1ccccc1,IC50,[1],0.0823 µM
CCOc1cc(CC(=O)N[C@@H](CC(C)C)c2ccccc2N2CCCCC2)cc2c1C(=O)N[C@@H](C)C(=O)N[C@@H](C(C)C)C(=O)OC/C(c1ccccc1)=C\C2,fold change (FC),K562/Adr [2],176.3
CCOc1cccc(-c2ccc3c(c2)c2ccccc2n3C)c1C(=O)Nc1cccc2cccnc12,IC50,HeLa [3],9.6 µM
same,IC50,HCT-116 [4],15.2 µM
COC(=O)[C@@H](NC(=O)[C@H](CC(C)C)NC(=O)[C@H](Cc1ccccc1C1=CC(=O)C=CC1=O)NC(=O)[C@@H](NC(=O)OC(C)(C)C)C(C)(C)C)C(C)C,IC50,U-87 MG,32 µM
O=C1NC(/C=C2/C(c3ccccc3)=C(c3ccccc3)c3ccccc32)=NC2c3ccccc3OC12 (stereo not drawn),IC50,CAL-27,8.79 µM
COc1ccc(-c2c(-c3cc(OC)c(OC)c(OC)c3)cc(-c3cc(OC)c(OC)c(OC)c3)oc2=O)cc1OC,inhibition at 20 µM,HCT-116 [5],89.4%
same,inhibition at 20 µM,A549,82.9%
CC12CCCCN1c1ccc(Br)cc1C(=O)O2 (stereo not drawn),MIC,Candida albicans,12.5 µg/mL
CC(=O)O[C@@]12CO[C@@H]1C[C@H](O)[C@@]1(C)C(=O)[C@H](O)C3=C(C)[C@@H](OC(=O)[C@H](O)[C@@H](NC(=O)OC(C)(C)C)c4ccccc4)C[C@@](O)([C@@H](OC(=O)c4ccccc4)[C@H]21)C3(C)C [DOCETAXEL ANHYDROUS],IC50,KBv200,0.104 µM
same,IC50,K562/Adr [6],1.03 µM
COc1ccc2c(c1)CC(Nc1ccccc1)(C(F)(F)F)n1c-2nc2ccccc21 (stereo not drawn),IC50,MDA-MB-231 [7],1.3 µM
Cc1cccc2c1C(=O)N1CCN(c3ccccc3)C1(C(F)(F)F)C2 (stereo not drawn),IC50,HeLa [8],1.43 µM
O=C1C=CC2(O)c3c(nc4c(c3-c3ccccc3)c3ccccc3n4Cc3ccccc3)OC2C1 (stereo not drawn),IC50,K562,2.1 µM
same,IC50,Jurkat,0.9 µM
C[Si](C)(C)c1ccc(C(c2c[nH]c3ccccc23)c2c[nH]c3ccccc23)cc1,IC50,MCF7 [9],6.71 µM
O=c1[nH]c(/C=C2/C(c3ccccc3)=C(c3ccccc3)c3cc(C(F)(F)F)ccc32)nc2ccccc12,IC50,CAL-27,9.41 µM
Cc1ccccc1C(c1c[nH]c2ccccc12)c1c[nH]c2ccccc12,IC50,MCF7 [9],5.69 µM
COC(=O)[C@H](CC(C)C)NC(=O)[C@H](Cc1ccccc1C1=CC(=O)C=CC1=O)NC(=O)[C@@H](NC(=O)OC(C)(C)C)C(C)(C)C,IC50,HeLa [10],40 µM
COC(=O)[C@]1(C)CC[C@]2(C)CC[C@]3(C)C4=CC=C5C(=CC(=O)C(O)=C5C)[C@]4(C)CC[C@@]3(C)[C@@H]2C1 [PRISTIMERIN],IC50,MDA-MB-231 [11],1.01 µM
same,IC50,SMMC-7721,1.97 µM
same,IC50,QGY-7703,2.34 µM
same,IC50,L02,3.6 µM
COC(=O)[C@]1(C)CC[C@]2(C)CC[C@]3(C)C4=CC=C5C(=CC(=O)C(OC(=O)CCCc6cn(CCCO[C@@H]7O[C@H](CO)[C@@H](O)[C@H](O)[C@H]7O)nn6)=C5C)[C@]4(C)CC[C@@]3(C)[C@@H]2C1,IC50,SMMC-7721,2.78 µM
same,IC50,QGY-7703,5.56 µM
same,IC50,L02,4.61 µM
Cc1ccccc1NC1(C(F)(F)F)Cc2ccccc2C(=O)N1CCO (stereo not drawn),IC50,HeLa [8],1.13 µM
O=C(Nc1cccc2cccnc12)c1ccccc1-c1ccc2c(c1)c1ccccc1n2-c1ccccc1,IC50,HeLa [3],37.1 µM
FC(F)(F)C1(Nc2ccccc2)Cc2ccsc2-c2nc3ccccc3n21 (stereo not drawn),IC50,HepG2 [12],9.6 µM
COc1ccc(-c2c(C3(O)C=CC(=O)C=C3)[nH]c(=O)c3c2c2ccccc2n3Cc2ccccc2)cc1,IC50,MDA-MB-231 [13],0.66 µM
same,IC50,HepG2 [14],1.39 µM
CCOC(=O)C1=C(Nc2ccc(OC)cc2)C[C@H](c2ccc(Cl)cc2)N(c2ccc(OC)cc2)[C@H]1c1ccc(Cl)cc1,IC50,MCF7 [15],34.2 µg/mL
CCOC(=O)C1=C(Nc2ccc(Cl)cc2)C[C@H](c2ccc(OC)cc2)N(c2ccc(Cl)cc2)[C@H]1c1ccc(OC)cc1,MIC,[16],12.5 µg/mL
CCCCCCN(C)CCn1cc(-c2cccc(C(=O)O)c2)nn1,IC50,[17],3.01 µM
CC[C@H](C)[C@@H]1NC(=O)[C@H](Cc2ccccc2)NC(=O)CC[C@@H](C(=O)OC)NC(=O)COC(=O)/C=C/c2cccc3c(c[nH]c23)C[C@@H](C(=O)OCc2ccccc2)NC1=O,inhibition at 30 µM,HCC1806,99%
COC(=O)[C@@H]1Cc2c[nH]c3c(cccc23)/C=C/C(=O)OCCCC(=O)N[C@@H](CC(C)C)C(=O)N2CCC[C@H]2C(=O)N[C@@H](Cc2ccccc2)C(=O)N1,inhibition at 30 µM,HCC1806,97%
Cc1ccc2c(c1)C(=O)OC1(C)CCCCN21 (stereo not drawn),IC50,HeLa [18],25.1 µg/mL
same,IC50,4T1,10.1 µg/mL
